In one assay the test system is PAI-1. The assay can be described thus: Western blot of BAL fluid and lung homogenates of bleo-treated mice: PAI-1. Type of assay: in vivo, mouse. The settings on record: 40 μg bleomycin intranasally, day 7; for PAI-1 expression in lung homogenates: 10 mM peptide i.p. by 0.1 ml osmotic pump after 24 h. How it is done:
(§1) Mice were treated intranasally with 50 μl saline (SAL; control) or an equal volume of a 40 μg bleomycin solution (Bleo). After 24 h, 10 mM PP-1 (“Bleo+PP-1”) or control peptide (Bleo+CP-1) were given intraperitoneally using a 0.1 ml osmotic pump. Lungs were excised on day 7, bronchoalveolar lavage (BAL) fluid (“B”), lung homogenates (“H”) and membrane proteins (uPAR) were analyzed by Western blotting using antibodies specific for the murine proteins. (The same blot (“H”) was then stripped and analyzed for β-actin confirm equivalent loading of the lanes)
(§2) Mice were treated intranasally with 50 μl saline or an equal volume of a 40 μg bleomycin solution. After 24 h, 10 mM PP-1 or the same concentration of control peptide CP-1 were given intraperitoneally using a 0.1 ml osmotic pump. Lungs were excised on day 7.
Lung tissue was chopped into small pieces with fine scissors and rinsed 3× with PBS. The tissues were then homogenized in 1 ml of extraction buffer (25 mM Tris-HCl, pH 7.9. 0.5 mM EDTA and 0.1 mM PMSF) and the homogenate was centrifuged at 12,000 g for 15 min at 4° C. The supernatant was removed and referred to as the crude extract. Protein content was measured using a BioRad protein assay kit. Cytosolic proteins were separated by SDS-PAGE and transferred to a nitrocellulose membrane which was blocked with 1% BSA in a wash buffer for 1 h at room temperature followed by overnight incubation with antibodies specific for uPA, PAI-1 or p53 in the same buffer at 4° C. Protein was detected by enhanced chemiluminescence (ECL). Membranes were stripped and immunoblotted for β-actin.
Mice were treated intranasally with saline (controls) are indicated (SAL). Mice receiving an equal volume of a 40 μg bleomycin solution are indicated (Bleo). Mice given PP-1 are indicated (PP-1) and those given control peptide are indicated (CP-1). BAL fluid is indicated (B), and lung homogenates (H) and membrane proteins (uPAR). Blots were probed with antibodies specific for the relevant murine proteins. (The same blot (H) was later stripped and analyzed for β-actin confirm equivalent loading of the lanes)
(A western blot detects proteins with antibodies after separation by electrophoresis.)

Assay [1] deals with p53. The assay can be described thus: Western blot of lung homogenates of bleo-treated mice: p53. Type of assay: in vivo, mouse. The settings on record: 40 μg bleomycin intranasally, 10 mM peptide i.p. by 0.1 ml osmotic pump after 24 h, day 7. How it is done:
as §1, §2
(§3) Lung tissue was chopped into small pieces with fine scissors and rinsed 3× with PBS. The tissues were then homogenized in 1 ml of extraction buffer (25 mM Tris-HCl, pH 7.9. 0.5 mM EDTA and 0.1 mM PMSF) and the homogenate was centrifuged at 12,000 g for 15 min at 4° C. […] Protein content was measured using a BioRad protein assay kit. […] Protein was detected by enhanced chemiluminescence (ECL). […]
(§4) Mice were treated intranasally with saline (controls) are indicated (SAL). […] (The same blot (H) was later stripped and analyzed for β-actin confirm equivalent loading of the lanes)

Assay [2] relates to p53. In words: IHC of lung tissue of bleo-treated mice: p53. The settings on record: bleomycin-treated mice, 24-72 h. In kind it is in vivo, mouse. How it is done:
(§5) For immunohistochemical (IHC) analysis, lungs were inflated at constant pressure of 20 cm H2O, removed and fixed overnight in 2% paraformaldehyde in PBS. Tissue was dehydrated by passage through a standard alcohol series and was embedded in paraffin. 5 μm sections were deparaffinized with xylene followed by incubation with 100% and 95% alcohol. After 10 min of antigen retrieval, the slides were incubated with H2O2 for 30 min to quench endogenous peroxidase. Slides were incubated overnight with the respective antibodies in PBS containing 0.1% Tween 20 and further processed using Lab vision kit (Freemont Calif.).
An IHC study was conducted to analyze lung tissue for expression p53, uPA, uPAR, PAI-1 and cleaved caspase 3 (Table 2). […] These IHC observations were confirmed by Western blotting (see Example II and FIG. 5).

For the next assay, the system named is uPAR. The assay can be described thus: Western blot of lung membrane proteins of bleo-treated mice: uPAR. In kind it is in vivo, mouse. The settings on record: 40 μg bleomycin intranasally, 10 mM peptide i.p. by 0.1 ml osmotic pump after 24 h, day 7. As to the method: as §1, §2
After preparation of the cytosolic extract, above, the pellet obtained after the initial centrifugation was resuspended in a membrane extraction buffer containing β-D-glucopyranoside and the suspension was homogenized for 5 to 10 min. […] The resulting clarified supernatant was analyzed for uPAR expression by Western blotting with anti-uPAR antibody and detected by ECL.
as §4

A further assay relates to Src kinase. The settings on record: Beas2B cells, bleo 40 μg/ml, 24 h, Western blot.
The next assay relates to cleaved PARP. In words: IHC of lung sections of bleo-treated mice: cleaved PARP. Type of assay: in vivo, mouse. The settings on record: peptide 4.5 μM i.p. days 1 and 2, bleomycin 40 μg/50 μl intranasal day 2; up to 72 h. As to the method:
On day 2 mice were treated with bleomycin (40 μg/50μl) by intranasal instillation. Mice were sacrificed 24, 48 and 72 h after later, lungs were excised, inflated and fixed in formalin, and […] sections were analyzed by immunohistochemistry (IHC) using an antibody specific for cleaved PARP.
as §5

In assay [3] the test system is p53. In words: Western blot of bleo-treated Beas2B cells: p53. In kind it is cell-based, human. The settings on record: 40 μg/ml bleo, 28 h. How it is done:
FIG. 4 depicts a set of Western blots showing the show the effect of bleo on uPA, uPAR, PAI-1 and p53 expression in LEC in vitro.
Beas2B cells were treated for 28 h with PBS or 40 μg/ml of bleo in the presence or absence of uPA or its ATF (20 nM), anti-β1-integrin monoclonal antibody (B1), (which activates β1-integrin by clustering), mouse IgG (mIgG), uPA+B1, uPA+mIgG, PP-1 (10 nM), or scrambled control peptide CP-1 (10 nM) at 37° C. In the case of uPA and PAI-1, the full length uPA was substituted with ATF, because uPA-mediated autoinduction or induction of PAI-1 occurs via the interaction of the ATF with uPAR (3-4). […] The membrane proteins were subjected to Western blotting using anti-uPAR antibody.

The subject of the next assay is uPA. The assay can be described thus: Western blot of lungs of bleo-treated mice: uPA. In kind it is in vivo, mouse. The settings on record: 40 μg bleomycin intranasally, 10 mM peptide i.p. by 0.1 ml osmotic pump after 24 h, day 7. As to the method:
as §1, §2, §3, §4

The next assay has as its system Beas2B cells. The assay can be described thus: Bleo-induced apoptosis of Beas2B cells, flow cytometry (anti-Annexin-V antibody and propidium iodide). In kind it is cell-based, human. The settings on record: 28 h, 40 μg/ml bleo, uPA 20 nM, anti-β1-integrin antibody 1 μg/ml, PP-1 10 nM. As to the method:
FIG. 6 is a graph showing apoptosis (% apoptotic cells) after treatment of cells with a β1-integrin activator (anti-β1-integrin antibody), uPA, a combination of the antibody and uPA, or PP-1, along with appropriate controls. Beas2B cells were treated for 28 h with PBS or 40 μg/ml of Bleo in the presence or absence of uPA (20 nM) or PBS as control, with anti-β1-integrin antibody (1 μg/ml, B1), or mouse IgG (mIgG) as control, a combination of the antibody (or control antibody with uPA, and with PP-1 peptide (10 nM) or the CP-1 control peptide (10 nM) as described above at 37° C. Cells were harvested after trypsinization and LEC apoptosis was determined by flow cytometry after exposing the cells to anti-Annexin-V antibody and propidium iodide (as described for FIG. 2A).
Expression of p53 and PAI-1 shown in Example I were correlated with LEC apoptosis induced by bleo (FIG. 6). […] Beas2B cells were treated for 28 h with PBS or 40 μg/ml of bleo (Bleo) with uPA (20 nM), and/or anti-β1-integrin antibody (1 μg/ml, B1), control mouse IgG (mIgG) PP-1 peptide (10 nM) or CP-1 control peptide (10 nM) as described above at 37° C. Cells were trypsinized and LEC apoptosis was determined by flow cytometry after exposing the cells to anti-Annexin-V antibody and propidium iodide (as described for FIG. 2A).
For orientation: A flow cytometer gives signals particle by particle.

“Also recorded” adds a separate entry of the source.

Procedure for Src kinase: Cell lysates were analyzed for activating tyrosine (Y418) phosphorylation and inhibitory tyrosine (Y529) phosphorylation by Western blotting using phospho-specific antibodies. The same membrane was stripped and analyzed for total Src (Src-2) kinase and β-actin expression by Western blotting using specific antibodies.

Regarding Bleomycin, in the assay on PAI-1, the “PAI-1 expression in lung homogenates” value is “increased” and the “PAI-1 in BAL fluid” value is “increased”. For the same substance, the “p53 expression in lung homogenates” value with p53 [1] is recorded as “increased”. Further, the “p53 expression in lung tissue (IHC)” value in the assay with p53 [2] is “induced p53 expression beginning at 48 h and increasing up to 72 h”. Moreover, the “uPAR levels in lung (membrane proteins)” value in the assay with uPAR is “suppression”. Besides, the “Src kinase activation (Y418 / Y529 phosphorylation)” value in the assay on Src kinase is listed as “Src kinase activation through phosphorylation of Src Y418”. In addition, the “cleavage (degradation) of PARP in lung” value in the assay on cleaved PARP is “induced cleavage of PARP after 72 h of exposure”. Further, the p53 expression entry in the assay with p53 [3] is “induced”. Also, in the assay with uPA, the “uPA levels in lung” value is listed as “suppression”.
As for “DGIWKASFTTFTVTKYWFYR [PP-1, residues 82-101 of human Cav-1, the caveolin-1 scaffolding domain]”, the “PAI-1 expression in lung homogenates” value in the assay with PAI-1 was “inhibited the increased p53 and PAI-1 expression”. Further, in the assay with p53 [1], the “p53 expression in lung homogenates” value is “inhibited the increased p53 and PAI-1 expression”. For the same substance, in the assay on p53 [2], the “p53 expression in lung tissue (IHC)” value is “blocked bleomycin induced p53 expression”. Moreover, the “uPAR levels in lung (membrane proteins)” value with uPAR is “enhanced the suppressed uPA and uPAR levels”. Further, the “Src kinase activation (Y418 / Y529 phosphorylation)” value in the assay on Src kinase was “inhibited bleo-induced activation of Src Y418 through phosphorylation of Src Y529”. In the assay on cleaved PARP, the “cleavage (degradation) of PARP in lung” value is “reversed such PARP degradation”. Further, the “protection of LECs from bleo-induced apoptosis” value in the assay on Beas2B cells is “protected LECs from bleo-induced apoptosis; also recorded: more potent in protecting LECs than was uPA or anti-β1-integrin antibody”. Further, in the assay with uPA, the “uPA levels in lung” value was “enhanced the suppressed uPA and uPAR levels”.

These data come from patent US8697840B2, “Peptide inhibition of lung epithelial apoptosis and pulmonary fibrosis” (Board of Regents, The University of Texas System, priority 2008, dated 2014).
